Results published in patent US8158172B2, “Fermented food products containing probiotics strains, and method for preparing same” (Compagnie Gervais Danone, priority 2006, dated 2012).

What was measured:
Format in all cases: cell-based
bifidobacteria (I-2494) = experiment: Development of the population of bifidobacteria in the model preserved at 4° C., filtered or autoclaved stimulant (Example 4); conditions: 50 mg/l; for population of bifidobacteria D 10: 10 days after placing in pots; for population of bifidobacteria D 10 / population of bifidobacteria D 24 / population of bifidobacteria D 29 / population of bifidobacteria D 0: preserved at 4° C.; for population of bifidobacteria D 24: 24 days after placing in pots; for population of bifidobacteria D 29: 29 days after placing in pots; for population of bifidobacteria D 0: placing in pots (packaging); for effect of the supply on the population of bifidobacteria: filtered or autoclaved, relative to control
Method: The impact of sterilization by filtration or thermization of the cysteine and methionine is assessed (final concentration used: 50 mg/l). The solutions are either filtered at 0.2 μm or autoclaved for 5 minutes at 121° C. then frozen in the form of beads in liquid nitrogen. Constitution of the model: Milex skimmed milk powder supplied by Arla food: 120 g […] Heat treatment: pasteurization for 30 minutes at 95° C. in a bubbling water bath Cysteine: supplier Sigma. The solution is prepared at 500 g/l, filtered on a 0.2 μm Nalgène filter unit or sterilized at 121° C. for 5 minutes by an autoclave controlled by temperature probe ([…] France S.A., reference KL 60/101). This solution is injected sterilely into the pasteurized model for a final concentration of 50 mg/l. […] The solution is prepared at 300 g/l; the filtration or sterilization treatment is identical to that carried out for the cysteine solution. This solution is injected sterilely into the pasteurized model for a final concentration of 50 mg/l. The seeding doses are referred to in Table 3 below. The seeding is 5.10^6 CFU/ml of Streptococcus thermophilus and 5.10^6 CFU/ml of Lactobacillus bulgaricus. The monitoring of the population of bifidobacteria in the model preserved at 4° C. as a function of the various conditions above is represented in FIG. 3 as well as in Table 4 below: The reference time D0 corresponds to placing in pots (packaging).

[1] = system: Bifidobacterium animalis ssp lactis (CNCM: I-2494); experiment: Growth of bifidobacteria in milk, quantity at the end of the fermentation (Example 1); conditions: milk model at 37° C.; vitamin C 0.5 g/l, cysteine 50 mg/l
Method: A ferment comprising Streptococcus thermophilus (CNCM: I-1630)+Lactobacillus delbreckii ssp. bulgaricus (CNCM: I-1632)+Lactobacillus delbrueckii ssp. bulgaricus (CNCM: I-1519)+Bifidobacterium animalis ssp lactis (CNCM: I-2494) is used. The growth of bifidobacteria in milk is measured in the presence of a solution of vitamin C (0.5 g/l) completely reducing the oxygen in the medium, and a solution of cysteine (50 mg/l). A heat treatment is carried out involving pasteurization for 30 minutes at 95° C. in a bubbling water bath. The cysteine is supplied by Sigma. The solution is prepared at 500 g/l, filtered on a 0.2 μm Nalgène filter unit. This solution is used injected sterilely into the pasteurized model for a final concentration of 50 mg/l. The vitamin C is supplied by Sigma. The solution is prepared at 100 g/l, filtered on a 0.2 μm Nalgène filter unit (cat. 156-4020, Nalge Europe Ltd, Belgium). This solution is used injected sterilely into the pasteurized model for a final concentration of 0.5 g/l. The seeding is 5.10^6 CFU/ml of Streptococcus thermophilus and 5.10^6 CFU/ml of Lactobacillus bulgaricus.

[2] = system: ferment comprising Streptococcus thermophilus (CNCM: I-1630), Lactobacillus delbrueckii ssp. bulgaricus (CNCM: I-1632, I-1519) and Bifidobacterium animalis ssp …; experiment: Monitoring of the acidification of the milk product model by the ferment of Example 1; conditions: vitamin C 0.5 g/l, cysteine 50 mg/l; for acidification curve compared with control / vitamin C curve: FIG. 1; for Ta = latency time / Tmax = time at Vmax / TpH 4.8 = time to arrive at pH 4.8 / TpH 5 = time to arrive at pH 5 / TpH 5.5 = time to arrive at pH 5.5 / Vmax = maximum rate / pH 0 = pH at start of fermentation / pHm = pH at the maximum acidification rate: milk model at 37° C.
Method: A ferment comprising Streptococcus thermophilus (CNCM: I-1630)+Lactobacillus delbreckii ssp. bulgaricus (CNCM: I-1632)+Lactobacillus delbrueckii ssp. bulgaricus (CNCM: I-1519)+Bifidobacterium animalis ssp lactis (CNCM: I-2494) is used.
The growth of bifidobacteria in milk is measured in the presence of a solution of vitamin C (0.5 g/l) completely reducing the oxygen in the medium, and a solution of cysteine (50 mg/l).
Constitution of the product model:
Milex skimmed milk powder supplied by Arla food: 120 g
Water: quantity sufficient for 1 kg
A heat treatment is carried out involving pasteurization for 30 minutes at 95° C. in a bubbling water bath.
The cysteine is supplied by Sigma. The solution is prepared at 500 g/l, filtered on a 0.2 μm Nalgène filter unit. This solution is used injected sterilely into the pasteurized model for a final concentration of 50 mg/l.
The vitamin C is supplied by Sigma. The solution is prepared at 100 g/l, filtered on a 0.2 μm Nalgène filter unit (cat. 156-4020, Nalge Europe Ltd, Belgium). This solution is used injected sterilely into the pasteurized model for a final concentration of 0.5 g/l.
The seeding is 5.10^6 CFU/ml of Streptococcus thermophilus and 5.10^6 CFU/ml of Lactobacillus bulgaricus.
The monitoring of the acidification of the model at 37° C. is represented in Table 2 below as well as in FIG. 1.

[3] = system: Bifidobacterium animalis ssp lactis (CNCM: I-2494); experiment: Population of bifidobacteria in milk models (stirred yogurts) during preservation at 10° C. (Example 2)
Method: A ferment comprising Streptococcus thermophilus (CNCM: I-2272)+Streptococcus thermophilus (CNCM: I-2773)+Streptococcus thermophilus (CNCM: I-2130)+Lactobacillus delbrueckii ssp. bulgaricus (CNCM: I-1519)-+Bifidobacterium animalis ssp lactis (CNCM: I-2494) is used. “Milk models” are constituted by standard stirred yogurts comprising the ferment described above. The use of 0.2 μm-filtered cysteine was assessed in the “milk models” in proportions comprised from 5 mg/l to 50 mg/l (preferably from 5 to 20 mg/l). For the bifidobacteria counting method, reference may be made to M. Grand et al., Quantitative analysis and molecular identification of bifidobacteria strains in probiotic milk products, Eur. Food Res. Technol. 217:90-92 (2003).

[4] = system: ferment comprising Streptococcus thermophilus (CNCM: I-2272, I-2773, I-2130), Lactobacillus delbrueckii ssp. bulgaricus (CNCM: I-1519) and Bifidobacterium …; experiment: Acidification kinetics of milk with the ferment of Example 2 (Example 3); conditions: 15 mg/L cysteine versus control without cysteine
Text: A ferment comprising Streptococcus thermophilus (CNCM: I-2272)+Streptococcus thermophilus (CNCM: I-2773)+Streptococcus thermophilus (CNCM: I-2130)+Lactobacillus delbrueckii ssp. bulgaricus (CNCM: I-1519)-+Bifidobacterium animalis ssp lactis (CNCM: I-2494) is used. The ferment described in Example 2 is used.

Bifidobacterium = experiment: Population of bifidobacteria during preservation at 10° C., cysteine incorporated before pasteurization (Example 5)
Method: This concentration was assessed on direct incorporation in the model and pasteurized composition (95° C., 30 minutes). The monitoring of the population of bifidobacteria in the product model during preservation at 10° C. is represented in FIG. 4.

bifidobacteria = experiment: Populations of bifidobacteria in products with increasing doses of cysteine (Example 7)
Method: Different products were prepared with increasing doses of cysteine (see the table below). The control was the standard dairy product containing the ferment.

N[C@@H](CS)C(=O)O [Autoclaved cysteine, L-cysteine]
population of bifidobacteria D 10 (bifidobacteria (I-2494)): 5.2.10^8 CFU/ml
population of bifidobacteria D 24 (bifidobacteria (I-2494)): 2.8.10^8 CFU/ml
population of bifidobacteria D 29 (bifidobacteria (I-2494)): 1.7.10^8 CFU/ml
population of bifidobacteria D 0 (bifidobacteria (I-2494)): 3.1 · 10^8 CFU/ml

CSCCC(N)C(=O)O [Autoclaved methionine, L-methionine ((S)-2-amino-4-methylthio-butyric acid)]
population of bifidobacteria D 10 (bifidobacteria (I-2494)): 3.5 · 10^8 CFU/ml
population of bifidobacteria D 24 (bifidobacteria (I-2494)): 3.5 · 10^8 CFU/ml
population of bifidobacteria D 29 (bifidobacteria (I-2494)): 2.8 · 10^8 CFU/ml
population of bifidobacteria D 0 (bifidobacteria (I-2494)): 3.4.10^8 CFU/ml

O=C1O[C@H]([C@@H](O)CO)C(O)=C1O [Vitamin C, vitamin C, reference compound]
D 0 CFU/ml = quantity of bifidobacteria obtained at the end of the fermentation [1]: 1.02 · 10^8 CFU/ml
acidification curve compared with control / vitamin C curve [2]: virtually indistinguishable from the control acidification curve
Ta = latency time [2]: 86 min
Tmax = time at Vmax [2]: 3.07 h
TpH 4.8 = time to arrive at pH 4.8 [2]: 479 minutes
TpH 5 = time to arrive at pH 5 [2]: 391 minutes
TpH 5.5 = time to arrive at pH 5.5 [2]: 260 minutes
Vmax = maximum rate [2]: −0.0079 pH units/minute
pH 0 = pH at start of fermentation [2]: 6.5
pHm = pH at the maximum acidification rate [2]: 5.96

N[C@@H](CS)C(=O)O [cysteine, L-cysteine]
D 0 CFU/ml = quantity of bifidobacteria obtained at the end of the fermentation [1]: 2.79 · 10^8 CFU/ml
effect of the supply on the population of bifidobacteria (bifidobacteria (I-2494)): increased
population of bifidobacteria D 10 (bifidobacteria (I-2494); listed as Filtered cysteine): 4.3 · 10^8 CFU/ml
population of bifidobacteria D 24 (bifidobacteria (I-2494); listed as Filtered cysteine): 4.0 · 10^8 CFU/ml
population of bifidobacteria D 0 (bifidobacteria (I-2494); listed as Filtered cysteine): 5.1.10^8 CFU/ml
Bifidobacterium I-2494 population after 28 days of preservation at 10° C. ([3]; 0.0015% i.e. 15 mg/l of filtered cysteine): 2.8.10^8 CFU/ml
Bifidobacterium population ([3]; dose of 0.0015% cysteine): > 2.10^8 CFU/ml
population of bifidobacteria after preservation for up to 28 days at 10° C. ([3]; highest concentration of L cysteine (range 5 mg/l to 50 mg/l)): remains stable
population of bifidobacteria at D+24 h ([3]; highest concentration of L cysteine (range 5 mg/l to 50 mg/l), 0.2 μm-filtered): 3.10^8 CFU/ml
population of bifidobacteria at D+24 h ([3]; lowest concentration of L cysteine (range 5 mg/l to 50 mg/l)): 1.10^8 CFU/ml
effect on the overall acidification kinetics of milk [4]: absence of the effect
population of Bifidobacterium after 44 days of preservation at 10° C. (Bifidobacterium; 12 mg/l cysteine incorporated before pasteurization (95° C., 30 minutes)): above 1.4.10^8 CFU/ml
population of Bifidobacterium at D1 (24 hours of storage) (Bifidobacterium; 12 mg/l cysteine incorporated before pasteurization (95° C., 30 minutes), 10° C.): 2.4.10^8 CFU/ml
population of Bifidobacterium on addition of 0.2 μm filtered cysteine to the model (Bifidobacterium; filtered cysteine, not heat treated (comparison)): 3.10^8 CFU/ml
Populations (CFU/mL) T0 (bifidobacteria; Test 1, cysteine 0.008%): 4.40E+06 CFU/mL
Populations (CFU/mL) Tf 495 min (bifidobacteria; Test 1, cysteine 0.008%): 1.70E+08 CFU/mL
Populations (CFU/mL) T0 (bifidobacteria; Test 2, cysteine 0.005%): 4.70E+06 CFU/mL
Populations (CFU/mL) T pH 4.8 (bifidobacteria; Test 2, cysteine 0.005%): 1.90E+08 CFU/mL
Populations (CFU/mL) Tf 495 min (bifidobacteria; Test 2, cysteine 0.005%): 2.40E+08 CFU/mL
Populations (CFU/mL) T0 (bifidobacteria; Test 3, cysteine 0.002%): 3.30E+06 CFU/mL
Populations (CFU/mL) T pH 4.8 (bifidobacteria; Test 3, cysteine 0.002%): 2.50E+08 CFU/mL
Populations (CFU/mL) Tf 495 min (bifidobacteria; Test 3, cysteine 0.002%): 3.10E+08 CFU/mL
Populations (CFU/mL) T0 (bifidobacteria; Test 5, cysteine 0.001%): 3.10E+06 CFU/mL
Populations (CFU/mL) T pH 4.8 (bifidobacteria; Test 5, cysteine 0.001%): 1.50E+08 CFU/mL
Populations (CFU/mL) Tf 495 min (bifidobacteria; Test 5, cysteine 0.001%): 2.40E+08 CFU/mL
Populations (CFU/mL) T0 (bifidobacteria; Test 6, cysteine 0.0005%): 3.90E+06 CFU/mL
Populations (CFU/mL) T pH 4.8 (bifidobacteria; Test 6, cysteine 0.0005%): 1.10E+08 CFU/mL
Populations (CFU/mL) Tf 495 min (bifidobacteria; Test 6, cysteine 0.0005%): 1.20E+08 CFU/mL
acidification curve compared with control / vitamin C curve [2]: differs from the acidification curve in the presence of vitamin C
Ta = latency time [2]: 90 min
Tmax = time at Vmax [2]: 3.47 h
TpH 4.8 = time to arrive at pH 4.8 [2]: 417 minutes
TpH 5 = time to arrive at pH 5 [2]: 354 minutes
TpH 5.5 = time to arrive at pH 5.5 [2]: 248 minutes
Vmax = maximum rate [2]: −0.01046 pH units/minute
pH 0 = pH at start of fermentation [2]: 6.6
pHm = pH at the maximum acidification rate [2]: 5.82

CSCCC(N)C(=O)O [methionine, L-methionine ((S)-2-amino-4-methylthio-butyric acid)]
effect of the supply on the population of bifidobacteria (bifidobacteria (I-2494)): increased
population of bifidobacteria D 10 (bifidobacteria (I-2494); listed as Filtered methionine): 6.2 · 10^8 CFU/ml
population of bifidobacteria D 24 (bifidobacteria (I-2494); listed as Filtered methionine): 3.4 · 10^8 CFU/ml
population of bifidobacteria D 29 (bifidobacteria (I-2494); listed as Filtered methionine): 2.3 · 10^8 CFU/ml
population of bifidobacteria D 0 (bifidobacteria (I-2494); listed as Filtered methionine): 4.0.10^8 CFU/ml
